Where a name gives a salt, the structure may show the parent alone.

In this experiment the target is T1, human MAO-B (Homo sapiens, UniProt P27338).
T1 construct: expressed in transfected cells; host or cells: EBNA cells (transient transfection); membranes obtained by homogenisation and centrifugation at 45,000 x g
T1 sequence (P27338 1-520): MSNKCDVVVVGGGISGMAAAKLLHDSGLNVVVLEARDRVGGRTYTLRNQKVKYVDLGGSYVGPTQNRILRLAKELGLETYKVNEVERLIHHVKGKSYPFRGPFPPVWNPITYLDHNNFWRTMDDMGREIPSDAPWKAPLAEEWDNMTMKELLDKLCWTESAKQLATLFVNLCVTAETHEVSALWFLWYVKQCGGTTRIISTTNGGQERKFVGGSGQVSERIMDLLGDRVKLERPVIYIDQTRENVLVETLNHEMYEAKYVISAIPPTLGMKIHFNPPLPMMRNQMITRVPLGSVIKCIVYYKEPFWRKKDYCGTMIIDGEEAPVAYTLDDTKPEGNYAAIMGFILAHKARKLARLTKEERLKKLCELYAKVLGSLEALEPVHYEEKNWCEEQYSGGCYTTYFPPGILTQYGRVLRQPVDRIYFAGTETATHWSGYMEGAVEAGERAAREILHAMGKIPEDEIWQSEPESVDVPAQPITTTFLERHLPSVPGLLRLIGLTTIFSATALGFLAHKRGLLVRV
Nature of the experiment: MAO-B enzymatic activity assay (spectrophotometric, tyramine/Amplex Red) on membranes of transfected EBNA cells. Type of experiment: biochemical. Particulars: membranes of EBNA cells transfected with human MAO-B cDNA; substrate tyramine; 30 min preincubation at 37° C.; read-out: IC50, MAO-B inhibition. As to the method: The cDNA's encoding human MAO-A and MAO-B were transiently transfected into EBNA cells using the procedure described by E.-J. Schlaeger and K. Christensen (Transient Gene Expression in Mammalian Cells Grown in Serum-free Suspension Culture; Cytotechnology, 15: 1-13, 1998). After transfection, cells were homogeneised by means of a Polytron homogeneiser in 20 mM Tris HCl buffer, pH 8.0, containing 0.5 mM EGTA and 0.5 mM phenylmethanesulfonyl fluoride. Cell membranes were obtained by centrifugation at 45,000×g and, after two rinsing step with 20 mM Tris HCl buffer, pH 8.0, containing 0.5 mM EGTA, membranes were eventually re-suspended in the above buffer and aliquots stored at −80° C. until use.
MAO-A and MAO-B enzymatic activity was assayed in 96-well-plates using a spectrophotometric assay adapted from the method described by M. Zhou and N. Panchuk-Voloshina (A One-Step Fluorometric Method for the Continuous Measurement of Monoamine Oxidase Activity, Analytical Biochemistry, 253: 169-174, 1997). Briefly, membrane aliquots were incubated in 0.1 M potassium phosphate buffer, pH 7.4, for 30 min at 37° C. with or without various concentrations of the compounds. After this period, the enzymatic reaction was started by the addition of the MAO substrate tyramine together with 1 U/ml horse-radish peroxidase (Roche Biochemicals) and 80 μM N-acetyl-3,7,-dihydroxyphenoxazine (Amplex Red, Molecular Probes). The samples were further incubated for 30 min at 37° C. in a final volume of 200 μl and absorbance was then determined at a wavelength of 570 nm using a SpectraMax plate reader (Molecular Devices). Background (non-specific) absorbance was determined in the presence of 10 μM clorgyline for MAO-A or 10 μM L-deprenyl for MAO-B.
IC50 values were determined from inhibition curves obtained using nine inhibitor concentrations in duplicate, by fitting data to a four parameter logistic equation using a computer program.
One may read the IC50 as the midpoint of a concentration-inhibition curve. Take `C[C@H](NC(=O)c1ccc(OCc2cccc(F)c2)cc1F)C(N)=O` [Example 1, (S)-N-(1-Carbamoyl-ethyl)-2-fluoro-4-(3-fluoro-benzyloxy)-benzamide]: the IC50 turned out to be 5.9 nM.

As to `NC(=O)CNC(=O)c1ccc(OCc2cccc(F)c2)cc1F` [Example 2, 2-[4-(3-Fluorobenzyloxy)-2-fluoro-benzamido]acetamide], the IC50 is 15.3 nM.

Take `COC[C@H](C)NC(=O)c1ccc(OCc2cccc(F)c2)cc1F` [Example 4, (S)-2-Fluoro-4-(3-fluoro-benzyloxy)-N-(2-methoxy-1-methyl-ethyl)-benzamide]: the IC50 turned out to be 8 nM.

For `NC(=O)[C@H](CO)NC(=O)c1ccc(OCc2cccc(F)c2)cc1F` [Example 5, (S)-N-(1-Carbamoyl-2-hydroxy-ethyl)-2-fluoro-4-(3-fluoro-benzyloxy)-benzamide], the IC50 was 11.6 nM.

With `COCCNC(=O)c1ccc(OCc2cccc(F)c2)cc1F` [Example 6, 2-Fluoro-4-(3-fluoro-benzyloxy)-N-(2-methoxy-ethyl)-benzamide], the half-inhibitory concentration (IC50) turned out to be 19.5 nM.

Take `NC(=O)CNC(=O)c1ccc(OCc2ccc(F)cc2)cc1F` [Example 10, 2-[4-(4-Fluorobenzyloxy)-2-fluoro-benzamido]acetamide]: the IC50 came to 11.6 nM.

Take `C[C@H](NC(=O)c1ccc(OCc2ccc(F)cc2)cc1F)C(N)=O` [Example 11, (S)-N-(1-Carbamoyl-ethyl)-2-fluoro-4-(4-fluoro-benzyloxy)-benzamide]: the half-maximal inhibitory concentration (IC50) was 7 nM.

For `C[C@H](NC(=O)c1ccc(OCc2ccc(C(F)(F)F)cc2)cc1F)C(N)=O` [Example 12, (S)-N-(1-Carbamoyl-ethyl)-2-fluoro-4-(4-trifluoromethyl-benzyloxy)-benzamide], the IC50 turned out to be 25.7 nM.

In the case of `C[C@H](NC(=O)c1ccc(OCc2ccc(F)cc2)c(F)c1)C(N)=O` [Example 18, (S)-N-(1-Carbamoyl-ethyl)-3-fluoro-4-(4-fluoro-benzyloxy)-benzamide], the IC50 was found to be 7 nM.

Regarding `NC(=O)CNC(=O)c1ccc(OCc2ccc(F)cc2)c(F)c1` [Example 19, 2-[4-(4-Fluorobenzyloxy)-3-fluoro-benzamido]acetamide], the IC50 is 3.1 nM.

As for `NC(=O)[C@H](CO)NC(=O)c1ccc(OCc2ccc(F)cc2)c(F)c1` [Example 20, (S)-N-(1-Carbamoyl-2-hydroxy-ethyl)-3-fluoro-4-(4-fluoro-benzyloxy)-benzamide], the IC50 was 11 nM.

As for `COCCNC(=O)c1ccc(OCc2ccc(F)cc2)c(F)c1` [Example 22, 3-Fluoro-4-(4-fluoro-benzyloxy)-N-(2-methoxy-ethyl)-benzamide], the half-inhibitory concentration (IC50) stood at 18 nM.

Consider `NC(=O)CNC(=O)c1ccc(OCc2cccc(F)c2)c(F)c1` [Example 25, 2-[4-(3-Fluorobenzyloxy)-3-fluoro-benzamido]acetamide], for which the concentration for half-maximal inhibition (IC50) was found to be 5 nM.

`C[C@H](NC(=O)c1ccc(OCc2cccc(F)c2)c(F)c1)C(N)=O` [Example 26, (S)-N-(1-Carbamoyl-ethyl)-3-fluoro-4-(3-fluoro-benzyloxy)-benzamide]: the IC50 stood at 19 nM.

For the compound `C[C@@H](NC(=O)c1ccc(OCc2cccc(F)c2)c(F)c1)C(N)=O` [Example 27, (R)-N-(1-Carbamoyl-ethyl)-3-fluoro-4-(3-fluoro-benzyloxy)-benzamide], the IC50 amounted to 23 nM.

Consider `NC(=O)[C@H](CO)NC(=O)c1ccc(OCc2cccc(F)c2)c(F)c1` [Example 28, (S)-N-(1-Carbamoyl-2-hydroxy-ethyl)-3-fluoro-4-(3-fluoro-benzyloxy)-benzamide], for which the concentration for half-maximal inhibition (IC50) amounted to 12 nM.

Take `NC(=O)CNC(=O)c1ccc(OCc2ccc(C(F)(F)F)cc2)c(F)c1` [Example 31, 2-[4-(4-Trifluoromethylbenzyloxy)-3-fluoro-benzamido]acetamide]: the half-maximal inhibitory concentration (IC50) stood at 16 nM.

As for `NC(=O)[C@H](CO)NC(=O)c1ccc(OCc2ccc(C(F)(F)F)cc2)c(F)c1` [Example 34, (S)-N-(1-Carbamoyl-2-hydroxy-ethyl)-3-fluoro-4-(4-trifluoromethyl-benzyloxy)-benzamide], the concentration for half-maximal inhibition (IC50) came to 25 nM.

With `NCCNC(=O)c1ccc(OCc2ccc(C(F)(F)F)cc2)c(F)c1` [Example 36, N-(2-Amino-ethyl)-3-fluoro-4-(4-trifluoromethyl-benzyloxy)-benzamide 1:1 hydrochloride], the half-inhibitory concentration (IC50) stood at 19 nM.

For the compound `C[C@H](NC(=O)c1c(F)cc(OCc2ccc(F)cc2)cc1F)C(N)=O` [Example 37, (S)-N-(1-Carbamoyl-ethyl)-2,6-difluoro-4-(4-fluoro-benzyloxy)-benzamide], the IC50 came out at 22 nM.

Regarding `NC(=O)CNC(=O)c1c(F)cc(OCc2ccc(F)cc2)cc1F` [Example 39, N-Carbamoylmethyl-2,6-difluoro-4-(4-fluoro-benzyloxy)-benzamide], the IC50 was determined as 27 nM.

For `COCCNC(=O)c1c(F)cc(OCc2ccc(F)cc2)cc1F` [Example 41, 2,6-Difluoro-4-(4-fluoro-benzyloxy)-N-(2-methoxy-ethyl)-benzamide], the 50% inhibitory concentration (IC50) is 13 nM.

With `C[C@@H](CO)NC(=O)c1c(F)cc(OCc2ccc(F)cc2)cc1F` [Example 45, (S)-2,6-Difluoro-4-(4-fluoro-benzyloxy)-N-(2-hydroxy-1-methyl-ethyl)-benzamide], the IC50 came out at 23 nM.

`COCCNC(=O)c1c(F)cc(OCc2cccc(F)c2)cc1F` [Example 51, 2,6-Difluoro-4-(3-fluoro-benzyloxy)-N-(2-methoxy-ethyl)-benzamide]: the IC50 was determined as 24 nM.

The record behind these values is patent US6951884B2, “Fluorobenzamides and uses thereof” (Hoffmann-La Roche Inc., priority 2002, dated 2005).
